Experimental data from ChEMBL document CHEMBL4004838, “Design and synthesis of novel phenyl -1, 4-beta-carboline-hybrid molecules as potential anticancer agents” (Eur J Med Chem, 2017).
Activity calls are given as the source filed them. The rule behind the calls is not given here.

Tests used:
Bos taurus = organism: Bos taurus; assay: Binding affinity to calf thymus DNA assessed as induction of hyperchromic shift at 20 uM sonicated for 35 to 40 mins by UV-vis spectrophotometric analysis
NCI-H322M = assay: Growth inhibition of human NCI-H322M cells incubated for 48 hrs by sulforhodamine B assay; type: functional
SK-MEL-2 = assay: Growth inhibition of human SK-MEL-2 cells incubated for 48 hrs by sulforhodamine B assay; type: functional; conditions: SK-MEL-2, 48 h
UACC-257 = assay: Growth inhibition of human UACC257 cells incubated for 48 hrs by sulforhodamine B assay; type: functional; conditions: UACC-257, 48 h
PC-3 [1] = assay: Growth inhibition of human PC3 cells incubated for 48 hrs by sulforhodamine B assay; type: functional; conditions: PC-3, 48 h
MDA-MB-231 = assay: Growth inhibition of human MDA-MB-231 cells incubated for 48 hrs by sulforhodamine B assay; type: functional; conditions: MDA-MB-231, 48 h
HCC 2998 = assay: Growth inhibition of human HCC2998 cells assessed as cell growth at 0.01 uM incubated for 48 hrs by sulforhodamine B assay relative to control; type: functional; conditions: HCC 2998, 48 h, read-out: Activity
SNB-19 = assay: Growth inhibition of human SNB19 cells assessed as cell growth at 0.01 uM incubated for 48 hrs by sulforhodamine B assay relative to control; type: functional; conditions: SNB-19, 48 h, read-out: Activity
M14 [2] = assay: Growth inhibition of human M14 cells assessed as cell growth at 0.01 uM incubated for 48 hrs by sulforhodamine B assay relative to control; type: functional; conditions: M14, 48 h, read-out: Activity
SK-OV-3 = assay: Growth inhibition of human SKOV3 cells assessed as cell growth at 0.01 uM incubated for 48 hrs by sulforhodamine B assay relative to control; type: functional; conditions: SK-OV-3, 48 h, read-out: Activity
A498 [3] = assay: Growth inhibition of human A498 cells assessed as cell growth at 0.01 uM incubated for 48 hrs by sulforhodamine B assay relative to control; type: functional; conditions: A498, 48 h, read-out: Activity
BT-549 [4] = assay: Growth inhibition of human BT549 cells assessed as cell growth at 0.01 uM incubated for 48 hrs by sulforhodamine B assay relative to control; type: functional; conditions: BT-549, 48 h, read-out: Activity
HL-60(TB) = assay: Growth inhibition of human HL-60(TB) cells assessed as cell growth at 0.1 uM incubated for 48 hrs by sulforhodamine B assay relative to control; type: functional; conditions: HL-60, 48 h, read-out: Activity
K562 = assay: Growth inhibition of human K562 cells assessed as cell growth at 0.1 uM incubated for 48 hrs by sulforhodamine B assay relative to control; type: functional; conditions: K562, 48 h, read-out: Activity
HOP-92 [5] = assay: Growth inhibition of human HOP92 cells assessed as cell growth at 0.1 uM incubated for 48 hrs by sulforhodamine B assay relative to control; type: functional; conditions: HOP-92, 48 h, read-out: Activity
NCI-H23 = assay: Growth inhibition of human NCI-H23 cells assessed as cell growth at 0.1 uM incubated for 48 hrs by sulforhodamine B assay relative to control; type: functional; conditions: NCI-H23, 48 h, read-out: Activity
HCT-116 = assay: Growth inhibition of human HCT116 cells assessed as cell growth at 0.1 uM incubated for 48 hrs by sulforhodamine B assay relative to control; type: functional; conditions: HCT-116, 48 h, read-out: Activity
PC-3 [6] = assay: Growth inhibition of human PC3 cells assessed as cell growth at 0.1 uM incubated for 48 hrs by sulforhodamine B assay relative to control; type: functional; conditions: PC-3, 48 h, read-out: Activity
DU-145 = assay: Growth inhibition of human DU145 cells assessed as cell growth at 0.1 uM incubated for 48 hrs by sulforhodamine B assay relative to control; type: functional; conditions: DU-145, 48 h, read-out: Activity
MDA-MB-468 [7] = assay: Growth inhibition of human MDA-MB-468 cells assessed as cell growth at 0.1 uM incubated for 48 hrs by sulforhodamine B assay relative to control; type: functional; conditions: MDA-MB-468, 48 h, read-out: Activity
NCI-H460 = assay: Growth inhibition of human NCI-H460 cells assessed as cell growth at 1 uM incubated for 48 hrs by sulforhodamine B assay relative to control; type: functional; conditions: NCI-H460, 48 h, read-out: Activity
HT-29 = assay: Growth inhibition of human HT-29 cells assessed as cell growth at 1 uM incubated for 48 hrs by sulforhodamine B assay relative to control; type: functional; conditions: HT-29, 48 h, read-out: Activity
M14 [8] = assay: Growth inhibition of human M14 cells assessed as cell growth at 1 uM incubated for 48 hrs by sulforhodamine B assay relative to control; type: functional; conditions: M14, 48 h, read-out: Activity
A498 [9] = assay: Growth inhibition of human A498 cells assessed as cell growth at 1 uM incubated for 48 hrs by sulforhodamine B assay relative to control; type: functional; conditions: A498, 48 h, read-out: Activity
HOP-92 [10] = assay: Growth inhibition of human HOP92 cells assessed as cell growth at 100 uM incubated for 48 hrs by sulforhodamine B assay relative to control; type: functional; conditions: HOP-92, 48 h, read-out: Activity
M14 [11] = assay: Growth inhibition of human M14 cells assessed as cell growth at 100 uM incubated for 48 hrs by sulforhodamine B assay relative to control; type: functional; conditions: M14, 48 h, read-out: Activity
NCI/ADR-RES = assay: Growth inhibition of human NCI-ADR-RES cells assessed as cell growth at 100 uM incubated for 48 hrs by sulforhodamine B assay relative to control; type: functional; conditions: read-out: Activity
UO-31 = assay: Growth inhibition of human UO31 cells assessed as cell growth at 100 uM incubated for 48 hrs by sulforhodamine B assay relative to control; type: functional; conditions: UO-31, 48 h, read-out: Activity
BT-549 [12] = assay: Growth inhibition of human BT549 cells assessed as cell growth at 100 uM incubated for 48 hrs by sulforhodamine B assay relative to control; type: functional; conditions: BT-549, 48 h, read-out: Activity
T47D = assay: Growth inhibition of human T47D cells assessed as cell growth at 100 uM incubated for 48 hrs by sulforhodamine B assay relative to control; type: functional; conditions: read-out: Activity
MDA-MB-468 [13] = assay: Growth inhibition of human MDA-MB-468 cells assessed as cell growth at 100 uM incubated for 48 hrs by sulforhodamine B assay relative to control; type: functional; conditions: MDA-MB-468, 48 h, read-out: Activity
[14] = read-out: LC50 (the source's name)
[15] = read-out: pLC50 (the source's name) (converted)

With c1ccc2[nH]c(-c3ccc(-c4nccc5c4[nH]c4ccccc45)cc3)nc2c1 the Activity (Bos taurus) was “Active”, the GI50 (NCI-H322M; read-out: GI50) was 2.86 µM and the CC50 (NCI-H322M; [14]) was 4.41 µM. For the same compound, the TGI (NCI-H322M; read-out: TGI) was 8.9 µM, the GI50 (NCI-H322M; read-out: pGI50 (converted)) was 2.88 µM and the CC50 (NCI-H322M; [15]) was 43.7 µM. For the same compound, the TGI (NCI-H322M; read-out: pTGI (converted)) was 8.91 µM, the GI50 (SK-MEL-2; read-out: GI50) was 1.99 µM and the CC50 (SK-MEL-2; [14]) was 9.45 µM. The TGI (SK-MEL-2; read-out: TGI) was 4.34 µM, the GI50 (SK-MEL-2; read-out: pGI50 (converted)) was 2 µM and the CC50 (SK-MEL-2; [15]) was 9.55 µM. It also gave a TGI (SK-MEL-2; read-out: pTGI (converted)) of 4.37 µM, a GI50 (UACC-257; read-out: GI50) of 1.83 µM and a CC50 (UACC-257; [14]) of 6.73 µM. The TGI (UACC-257; read-out: TGI) was 3.5 µM, the CC50 (UACC-257; [15]) was 6.76 µM and the GI50 (PC-3 [1]; read-out: GI50) was 8.59 µM. It also gave a CC50 (PC-3 [1]; [14]) of 6.68 µM, a GI50 (PC-3 [1]; read-out: pGI50 (converted)) of 8.51 µM and a CC50 (PC-3 [1]; [15]) of 66.1 µM. For the same compound, the TGI (PC-3 [1]; read-out: pTGI (converted)) was 25.1 µM, the GI50 (MDA-MB-231; read-out: GI50) was 2.39 µM and the TGI (MDA-MB-231; read-out: TGI) was 5.83 µM. The GI50 (MDA-MB-231; read-out: pGI50 (converted)) was 2.4 µM, the CC50 (MDA-MB-231; [15]) was > 100 µM and the TGI (MDA-MB-231; read-out: pTGI (converted)) was 5.89 µM. For the same compound, the growth at 0.01 µM (HCC 2998) was 96%, the growth at 0.01 µM (SNB-19) was 91% and the growth at 0.01 µM (M14 [2]) was 93%. For the same compound, the growth at 0.01 µM (SK-OV-3) was 93%, the growth at 0.01 µM (A498 [3]) was 96% and the growth at 0.01 µM (BT-549 [4]) was 91%. It also gave a growth at 0.1 µM (HL-60(TB)) of 92%, a growth at 0.1 µM (K562) of 108% and a growth at 0.1 µM (HOP-92 [5]) of 93%. The growth at 0.1 µM (NCI-H23) was 93%, the growth at 0.1 µM (HCT-116) was 96% and the growth at 0.1 µM (PC-3 [6]) was 100%. The growth at 0.1 µM (DU-145) was 96%, the growth at 0.1 µM (MDA-MB-468 [7]) was 99% and the growth at 1 µM (NCI-H460) was 97%. It also gave a growth at 1 µM (HT-29) of 106%, a growth at 1 µM (M14 [8]) of 92% and a growth at 1 µM (A498 [9]) of 92%. The growth at 100 µM (HOP-92 [10]) was 76%, the growth at 100 µM (M14 [11]) was 76% and the growth at 100 µM (NCI/ADR-RES) was 45%. It also gave a growth at 100 µM (UO-31) of 82%, a growth at 100 µM (BT-549 [12]) of 43% and a growth at 100 µM (T47D) of 53%. For the same compound, the growth at 100 µM (MDA-MB-468 [13]) was 63%.
